# Target: Carbonic anhydrase 4 (Homo sapiens) (UniProt P22748)
# Experiment: Activation constant against recombinant human CA IV isozyme by the esterase method
# Format: functional
# Sequence of Carbonic anhydrase 4 (Homo sapiens) (P22748 whole entry): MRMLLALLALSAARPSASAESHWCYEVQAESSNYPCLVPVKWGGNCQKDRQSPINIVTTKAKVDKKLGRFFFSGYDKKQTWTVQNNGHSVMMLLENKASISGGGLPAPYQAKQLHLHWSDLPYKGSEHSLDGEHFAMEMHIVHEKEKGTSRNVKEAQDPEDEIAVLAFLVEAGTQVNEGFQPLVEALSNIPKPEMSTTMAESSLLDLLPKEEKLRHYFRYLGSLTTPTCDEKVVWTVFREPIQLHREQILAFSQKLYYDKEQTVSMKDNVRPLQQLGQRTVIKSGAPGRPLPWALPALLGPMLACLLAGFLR
row,SMILES,KA [µM]
1,NCCc1c[nH]cn1,37
2,COC(=O)[C@@H](N)Cc1c[nH]cn1,23
3,NCCC(=O)N[C@@H](Cc1c[nH]cn1)C(=O)O,15
4,N[C@@H](Cc1ccccc1)C(=O)O,4.6
5,N[C@@H](Cc1c[nH]cn1)C(=O)O,33

# — ChEMBL document CHEMBL1141204, “Carbonic anhydrase activators: X-ray crystal structure of the adduct of human isozyme II with L-histidine as a platform for the design of stronger activators” (Bioorg Med Chem Lett, 2005)
